The subject of data set [1] is MCL1-L, BCL-XL, BCL-2, SF3B1, SF3B3 transcripts. In words: Splicing effects on LSC-enriched anti-apoptotic transcripts and splicing factor gene products. The data set is classed as cell-based, human. The method, then:
(§1) For quantitative analysis of splice isoform expression, RNA editing rates, and whole gene expression by qRT-PCR, cells or tissue fragments were harvested in RNA lysis buffer and total RNA was extracted using RNeasy mini or micro extraction kits (QIAGEN, Germantown, MD) following the manufacturer's protocol including a DNase incubation step to digest any trace genomic DNA present. Levels of ADAR1 variants and LSC-specific transcripts were quantified by qRT-PCR as previously described.^14 RNA-editing site-specific qRT-PCR (RESSqPCR) was performed for variants in AZIN1 transcripts.^53 Additional species-specific primers were also designed to quantify intron retention rates in cells treated with Rebecsinib as a biomarker of response to RNA splicing modulation. Specifically, for the two-step SYBR-green based assays, as previously described,^7,14,53 100-1000 ng of RNA were subjected to cDNA synthesis using the SUPERSCRIPT III™ (ThermoFisher Scientific) kit followed by qRT-PCR using SYBR GreenER (ThermoFisher Scientific) master mix according to the manufacturer's recommended procedures. qRT-PCR was performed using SYBR GREENER SUPER MIX™ (Life Technologies) on BioRad iQ5™, C1000 TOUCH™, or BioRad CFX384™ instruments. […] Relative mRNA expression values were calculated using the 2^−ΔCT method, with normalization to untreated or vehicle-treated controls.^54

The test system of a further data set is normal aged HSPC. In words: ADAR1 nanoluc-GFP aged normal bone marrow CD34+ engrafted mice. As to conditions: 10 mg/kg. The data set is classed as in vivo, human cells in immunocompromised mice. From the text:
To further test the utility of the ADAR1 nanoluc-GFP reporter for in vivo detection of endogenous ADAR1 activity, primary human aged normal bone marrow CD34^+ cells were transduced with the reporter vector and transplanted into immunocompromised mice. ADAR1 activity was detected by live animal bioluminescence imaging and corresponded with human cell engraftment detection by flow cytometry.
(§2) In humanized mouse models, sAML cells (CD34^+) from two unique […] patient samples that were splicing factor mutated or unmutated were utilized, including sAML50261 and sAML2008-5.^14 For in vivo efficacy and therapeutic index studies, sAML CD34^+ cells, or normal human cord blood-derived or aged bone marrow-derived HSPCs (CD34^+), were transplanted (50,000-200,000 cells per mouse) intrahepatically into neonatal Rag2^−/−γc^−/− mice, or intravenously into adult NSG-SGM3 mice (Jackson Laboratories, Bar Harbor, ME). A subset of experiments was performed with normal aged bone marrow cells that were transduced with the lentiviral ADAR1 nanoluc-GFP reporter vector prior to transplant. For transplantation into adult mice, animals were irradiated with ^137Cs at a dose of 150 cGy 24 hr before IV transplantation. […]

For data set [2], the system named is RBL-1 leukemia cells (Sf3b family members). Put plainly: Splice isoform biomarker qRT-PCR in rat RBL-1 leukemia cells. The data set is classed as cell-based. To be noted: 1 μM, 4 hr; different lots of Rebecsinib. The method, then: as §1, with “modulation.” for “modulation. Specifically, for the two-step SYBR-green based assays, as previously described,^7,14,53 100-1000 ng of RNA were subjected to cDNA synthesis using the SUPERSCRIPT III™ (ThermoFisher Scientific) kit followed by qRT-PCR using SYBR GreenER (ThermoFisher Scientific) master mix according to the manufacturer's recommended procedures. qRT-PCR was performed using SYBR GREENER SUPER MIX™ (Life Technologies) on BioRad iQ5™, C1000 TOUCH™, or BioRad CFX384™ instruments.”
For multi-species biomarker development and transcript variant-specific qRT-PCR experiments, human AML cell lines KG-1a, MOLM-13, and HL-60, and rat leukemia cells RBL-1 were grown to confluence and treated with 1 μM Rebecsinib for 4 hr. Cells were collected and lysed in Qiagen RNA lysis buffer, and analyzed using the species-specific primers and qRT-PCR procedures described above.
(In general: Real-time PCR tracks product formation cycle by cycle.)

For another data set, the system named is ADAR1p150. Put plainly: ADAR1p150 protein by intracellular flow cytometry in sAML50261 engrafted mice. The data set is classed as in vivo, human cells in mice. As to conditions: human HSC and HPC, spleens of sAML50261 engrafted mice, vs vehicle. As for the experimental part:
FIG. 30D illustrates a mean fluorescence intensity (MFI) of ADAR1p150 protein levels in human HSCs (CD45^+CD34^+CD38^−Lin^−) and HPCs (CD45^+CD34^+CD38^+Lin^−) from the spleens of sAML50261 engrafted mice treated with Rebecsinib or vehicle;
Flow cytometry for stem and progenitor cell surface antibody staining was performed as previously described.^14 For phospho-flow, a subset of samples was fixed and permeabilized, then blocked and stained with APC-conjugated ADAR1p150 antibody (cat ab269444, 1:25) and pSTAT3 APC (cat 17-9033-42, 1:10) (Table S2). Fractions were analyzed with the BD LSR FORTESSA™ (Sanford Consortium for Regenerative Medicine Stem Cell Core) and FLOWJO™ software (TreeStar, Ashland, OR).
as §2, with “transplant.” for “transplant. For transplantation into adult mice, animals were irradiated with ^137Cs at a dose of 150 cGy 24 hr before IV transplantation.”

The structures appear in SMILES notation.

For the compound `CC[C@H](OC)[C@@H](C)[C@H]1O[C@@H]1[C@@H](O)[C@H](C)/C=C/C=C(\C)[C@H]1OC(=O)C[C@H](O)CC[C@@](C)(O)[C@@H](OC(C)=O)/C=C/[C@@H]1C` [Rebecsinib], in data set [1], the “LSC-enriched anti-apoptotic transcripts, including MCL1-L, BCL-XL, and BCL-2” value is given as “reduces”; the “intron retention in splicing factor gene products, such as SF3B1 and SF3B3” value is “induces marked intron retention”. In addition, in the data set on normal aged HSPC, the “human HSPC engraftment and mature T or B cell maturation” value is “no loss of human HSPC engraftment or mature T or B cell maturation”. Further, in the data set on normal aged HSPC (in comparison to cord blood transplantation models), the “frequency of normal CD34+ cells in bone marrow” value is recorded as “appeared to be increased”. For the same compound, the “intron retention in Sf3b family members” value in data set [2] is on record as “rapidly induced”. The “ADAR1p150 protein isoform levels” value in the data set on ADAR1p150 is “significantly decreased ADAR1p150 protein isoform levels”.
